Experiments:
[1] = tested on: human skin (forearms of 10 panelists); assay: Conductance measuring test; assay type: in vivo; settings: for Conductance 30 min-after / Conductance 60 min-after / Conductance 120 min-after: 10% aqueous solution; for Conductance 30 min-after: 30 minutes after application; for Conductance 60 min-after: 60 minutes after application; for Conductance 120 min-after: 120 minutes after application
Experimental: (i) Conductance Measuring Test
Using forearms of 10 panelists, the skin conductance was measured before application and for 30 minutes, 60 minutes and 120 minutes after application, and the moisturizing effect was evaluated from a change rate thereof. The change rate of the skin conductance is calculated by the following equation (II): Conductance change rate=[…].
The change rate can be used for study of the influences on a water-absorbing property and a moisture retaining ability of a keratin layer. When this change rate is small, there is increase in the moisture in a keratin layer, thus, it can be evaluated that the moisturizing effect is high.
The evaluation criteria of conductance measuring test is as follows: • {circumflex over (◯)}: The average of conductance change rate of 10 panelists is not less than 0 and less than 0.1 • ◯: The average of conductance change rate of 10 panelists is not less than 0.1 and less than 0.2 • Δ: The average of conductance change rate of 10 panelists is not less than 0.2 and less than 0.5 • X: The average of conductance change rate of 10 panelists is not less than 0.5

[2] = tested on: human skin (medial parts of brachiums); assay: Evaluation No.(7): Skin Stimulation Test B (smart feeling); assay type: in vivo
Experimental: (viii) Evaluation No.(7): Skin Stimulation Test B
A smart feeling when a sample applied on medial parts of brachiums of 10 panelists was graded based on the following criteria and, thereafter, an average was calculated: • 0: No smart feeling is perceived. • 1: Slight smart feeling or redness is perceived. • 2: Smart feeling or redness is perceived. • 3: Smart feeling and redness are perceived.
The evaluation criteria of skin stimulation test B is as follows: • {circumflex over (◯)}: The average of 10 panelists is not less than 0 and less than 0.1 • ◯: The average of 10 panelists is not less than 0.1 and less than 0.15 • Δ: The average of 10 panelists is not less than 0.15 and less than 0.2 • X: The average of 10 panelists is not less than 0.2

human skin [3] = assay: Evaluation No.(8): Refreshing Effect Durability; assay type: in vivo; settings: for Refreshing feeling (8): basic composition B
Experimental: (ix) Evaluation No.(8): Refreshing Effect Durability A presence or absence of refreshing feeling for 120 minutes after use was evaluated by 10 special panelists. The evaluation criteria is as follows: • {circumflex over (◯)}: Not less than 8 special panelists recognized that there was refreshing feeling durability. • ◯: Not less than 6 and less than 8 special panelists recognized that there was refreshing feeling durability. • Δ: Not less than 3 and less than 6 special panelists recognized that there was refreshing feeling durability. • X: Less than 3 special panelists recognized that there was refreshing feeling durability.

human skin [4] = assay: Evaluation No.(3): Moisturizing Effect Feeling; assay type: in vivo; settings: compound 5% by weight in basic composition A
Experimental: (iv) Evaluation No.(3): Moisturizing Effect Feeling Practical test on the presence or absence of the moisturizing effect feeling for 120 minutes after use was performed by using 10 special panelists. The evaluation criteria is as follows: • {circumflex over (◯)}: Not less than 8 special panelists recognized that there was the moisturizing effect feeling. • ◯: Not less than 6 and less than 8 special panelists recognized that there was the moisturizing effect feeling. • Δ: Not less than 3 and less than 6 special panelists recognized that there was the moisturizing effect feeling. • X: Less than 3 special panelists recognized that there was the moisturizing effect feeling.

rough skin on cheek = assay: Evaluation No.(4): Rough Skin Improving Effect Test; assay type: in vivo, human; settings: compound 5% by weight in basic composition A
Experimental: (v) Evaluation No.(4): Rough Skin Improving Effect Test A rough skin improving effect test was performed by using 10 panelists having rough skin on cheek. According to a test schedule, different skin lotions were applied on left and right cheeks for 1 week, and the effect was determined on the next day after the last day of the test period. The evaluation criteria is as follows: • {circumflex over (◯)}: Not less than 8 panelists recognized that the rough skin was improved. • ◯: Not less than 6 and less than 8 panelists recognized that the rough skin was improved. • Δ: Not less than 3 and less than 6 panelists recognized that the rough skin was improved. • X: Less than 3 panelists recognized that the rough skin was improved.

[5] = tested on: human skin (medial parts of brachiums); assay: Evaluation No.(5): Skin Stimulation Test A (occluding patch); assay type: in vivo; settings: compound 5% by weight in basic composition A
Experimental: (iv) Evaluation No.(5): Skin Stimulation Test A
Occluding patch was performed on medial parts of brachiums of 10 panelists for 24 hours and, thereafter, an average was calculated based on the following criteria: • 0: No abnormality is perceived. • 1: Slight redness is perceived. • 2: Redness is perceived. • 3: Redness and papula are perceived.
The evaluation criteria of skin stimulation test A is as follows: • {circumflex over (◯)}: The average of 10 panelists is not less than 0 and less than 0.1 • ◯: The average of 10 panelists is not less than 0.1 and less than 0.15 • Δ: The average of 10 panelists is not less than 0.15 and less than 0.2 • X: The average of 10 panelists is not less than 0.2

Compound	Conductance 30 min-after [1]	Conductance 60 min-after [1]	Conductance 120 min-after [1]	Evaluation in conductance measuring (120 min after) ([1]; Table 7, 5% alone in ion-exchange water 95%)	Stimulation B (7) ([2]; Table 11, tested compound 5.0 wt % in basic composition B (L-menthol 0.1))	Refreshing feeling durability (8) (human skin [3]; Table 11, tested compound 5.0 wt % in basic composition B (L-menthol 0.1), 120 minutes after use)	Moisturizing Evol. No. (3) (human skin [4]; Table 2, 120 minutes after use)	Evaluation (3) moisturizing effect feeling (human skin [4]; Table 4)	Rough skin Evol. No. (4) (rough skin on cheek; Table 2, applied 1 week)	Evaluation (4) rough skin improving effect (rough skin on cheek; Table 4)	Stimulation A Evol. No. (5) ([5]; Table 2, occluding patch 24 hours)	Evaluation (5) skin stimulation A ([5]; Table 4)	Stimulation B (7) ([2]; Table 12, basic composition B, tested compound 5.0 wt %)	Stimulation B (7) ([2]; Table 13, Y/X study, basic composition B)	Stimulation B (7) ([2]; Table 14, basic composition B, tested compound 5.0 wt %)	Refreshing feeling (8) (human skin [3]; Table 12, tested compound 5.0 wt %)	Refreshing feeling (8) (human skin [3]; Table 13, Y/X study)	Refreshing feeling (8) (human skin [3]; Table 14, tested compound 5.0 wt %)
CC(O)CCO (stereo not drawn) [1,3-Butylene glycol]	Δ (The average of conductance change rate of 10 panelists is not less than 0.2 and less than 0.5)	Δ (The average of conductance change rate of 10 panelists is not less than 0.2 and less than 0.5)	Δ (The average of conductance change rate of 10 panelists is not less than 0.2 and less than 0.5)															
OCC(O)CO [Glycerin]	⊚ (The average of conductance change rate of 10 panelists is not less than 0 and less than 0.1)	◯ (The average of conductance change rate of 10 panelists is not less than 0.1 and less than 0.2)	◯ (The average of conductance change rate of 10 panelists is not less than 0.1 and less than 0.2)	Δ (The average of conductance change rate of 10 panelists is not less than 0.2 and less than 0.5)	Δ (The average of 10 panelists is not less than 0.15 and less than 0.2)	X (Less than 3 special panelists recognized that there was refreshing feeling durability.)												
Polyoxyethylene (10) polyoxypropylene (10) dimethyl ether [Compound 2]							⊚ (Not less than 8 special panelists recognized that there was the moisturizing effect feeling.)	⊚ (Not less than 8 special panelists recognized that there was the moisturizing effect feeling.)	⊚ (Not less than 8 panelists recognized that the rough skin was improved.)	⊚ (Not less than 8 panelists recognized that the rough skin was improved.)	⊚ (The average of 10 panelists is not less than 0 and less than 0.1)	⊚ (The average of 10 panelists is not less than 0 and less than 0.1)	⊚ (The average of 10 panelists is not less than 0 and less than 0.1)	⊚ (The average of 10 panelists is not less than 0 and less than 0.1)	⊚ (The average of 10 panelists is not less than 0 and less than 0.1)	⊚ (Not less than 8 special panelists recognized that there was refreshing feeling durability.)	⊚ (Not less than 8 special panelists recognized that there was refreshing feeling durability.)	⊚ (Not less than 8 special panelists recognized that there was refreshing feeling durability.)

Reference: patent US8153142B2, “Skin treatment composition” (Shiseido Co., Ltd., priority 2001, dated 2012)
